Measured values: patent US6566512B1, “ARV1, a protein involved in sterol uptake and sterol homeostasis in the budding yeast, S-cerevisiae, and a functional human ARV1” (The Trustees of Columbia University in the City of New York, priority 2000, dated 2003)

System: arv1D cells
Assay: Polyene (nystatin) sensitivity of arv1 deletion yeast, growth on plates
Format: cell-based, Saccharomyces cerevisiae
Settings: for polyene sensitivity of yeast strains deleted for the ARV1 gene (arv1Δ): concentration not given
Procedure: FIGS. 1A-1C arv1 mutant phenotypes. FIG. 1A, Temperature and nystatin sensitivity. 5-fold dilutions of cells were grown as indicated for three days on YEPD +/−5 μg/ml nystatin (10 mg/ml in propylene glycol). FIG. 1B, Characterization of sterol levels. Cells were labeled with [^3H]acetate and lipids extracted and analyzed by TLC. Data from three independent assays of two strains of each genotype is expressed as mean ratio over wild-type (±SEM; statistical significance by paired t-tests, *p<0.05 or **p<0.01 compared to wild-type). Hatched bars wild-type, gray bars=arv1D. FIG. 1C, Subcellular sterol accumulation. Cell membrane preparations were subjected to subcellular fractionation. Lipid composition is presented as ratio of [^3H]acetate in sterol and [^14C]oleate in phospholipids (top panels). Hatched bars=wild-type, gray bars=arv1D. Note scale differences between the upper panels. Fractions were characterized with specific antibodies against the plasma membrane ATPase (Pma1p, provided by Amy Chang), and 100 kDa subunit of integral vacuolar membrane H^+ATPase (Vph1p, Molecular Probes). Bottom panels show densitometry analysis of western blots expressed as percentage of total arbitrary units (Pma1p; closed boxes, Vph1p; open triangles). The integral ER membrane protein, dolichol phosphate mannose synthase cofractionated with Vph1p.
Mutations in sterol trafficking genes may alter membrane sterol levels. arv1D cells are sensitive to nystatin (FIG. 1a), a polyene antibiotic that disrupts membranes in part by interaction with sterols^10. Nystatin partitioning into membranes is sensitive to both sterol organization and levels^10. […] Iodine staining of sterol mass following extraction and thin layer chromatography (TLC) analysis reflected these differences (not shown).

Row | Structure (SMILES) | polyene sensitivity of yeast strains deleted for the ARV1 gene (arv1Δ) | sensitivity of arv1D cells to nystatin (growth, FIG. 1a) (5-fold dilutions of cells grown three days on YEPD +/- 5 μg/ml nystatin, compared with wild-type)
1 | C[C@@H]1[C@H](O)[C@@H](C)/C=C/C=C/C=C/C=C/C=C/C=C/C=C/[C@H](O[C@@H]2O[C@H](C)[C@@H](O)[C@H](N)[C@@H]2O)C[C@@H]2O[C@](O)(C[C@@H](O)C[C@@H](O)[C@H](O)CC[C@@H](O)C[C@@H](O)CC(=O)O[C@H]1C)C[C@H](O)[C@H]2C(=O)O [amphotericin B] | sensitive | –
2 | CCCCC[C@@H](O)[C@H]1C(=O)O[C@H](C)[C@@H](O)/C=C/C=C/C=C/C=C/C=C(\C)[C@@H](O)C[C@H](O)C[C@H](O)C[C@H](O)C[C@H](O)C[C@H](O)C[C@@H]1O [filipin] | sensitive | –
3 | C[C@@H]1[C@H](O)[C@@H](C)/C=C/C=C/CC/C=C/C=C/C=C/C=C/C(O[C@H]2O[C@H](C)[C@@H](O)[C@H](N)[C@@H]2O)CC2O[C@](O)(CC(O)C(O)CCC(O)CC(O)CC(O)CC(=O)O[C@H]1C)CC(O)C2C(=O)O (stereo partly shown) [nystatin] | sensitive | sensitive
